# Data published in patent EP0628046B1, “TRIAZOLOPYRIMIDIN DERIVATIVES AS ANTIOTENSIN II RECEPTOR ANTAGONISTS” (LABORATOIRES UPSA, priority 1992, dated 1993).
# Assays:
# [1] = tested on: récepteurs surrénaliens de l'angiotensine Il; experiment: Displacement of [125I]-SIAII radioligand from adrenal angiotensin II receptors (rat adrenal homogenate); type: binding; details: 60 min at 25°C
# Text: L'affinité des produits des exemples pour les récepteurs de l'angiotensine Il est évaluée par technique de déplacement d'un radioligand spécifiquement fixé sur les récepteurs surrénaliens de l'angiotensine Il, chez le rat.
# Une aliquote d'un homogénat de surrénales de rat incube en présence d'une concentration unique de [1251] - SIAII (Sar1, Tyr4, Ile8 - angiotensine il), antagoniste des récepteurs de l'angiotensine Il, et de deux concentrations d'agents compétiteurs (10^-5 M, 10^-7 M) durant 60 min à 25°C.
# La réaction est achevée par ajout de tampon, puis rapide filtration à travers des filtres de papier de verre. La liaison non spécifique est déterminée en présence d'angiotensine II.
# Les résultats sont exprimés, pour les concentrations testées, en pourcentage de déplacement du radioligand spécifiquement fixé sur les récepteurs surrénaliens de l'angiotensine il.
# [2] = tested on: cellules musculaires lisses d'aortes de rat (CMLV); experiment: Inhibition of PDGF-induced cell proliferation (3H-thymidine incorporation) in rat aortic smooth muscle cells; type: cell-based; details: 1E - 4M; 1 h pretreatment, 22 h PDGF stimulation
# Protocol: B. Mesure de l'inhibition de la prolifération cellulaire induite par les facteurs de croissance (exemple : le Platelet-Derived Growth Factor ou PDGF) dans les cellules musculaires lisses d'aortes de rat
# L'inhibition de la prolifération cellulaire induite par un facteur de croissance (exemple : le PDGF) est évaluée par mesure de l'incorporation de 3H-thymidine dans les cellules musculaires lisses d'aortes de rat (CMLV).
# Les CMLV sont cultivées à 37°C, en 5 % C02, jusqu'à la sous-confluence puis placées pendant 24 heures en quiescence dans un milieu pauvre en sérum. Elles sont ensuite prétraitées pendant une heure par la molécule à tester (10^-4M) puis stimulées pendant 22 heures par un facteur de croissance (exemple : le PDGF). L'incorporation de 3H-thymidine est effectuée pendant les 4 dernières heures. Toutes ces étapes sont effectuées à 37°C, en 5 % CO2. La réaction est terminée par aspiration du milieu réactionnel, détachement des cellules, puis filtration des cellules lysées à travers des filtres en fibres de verre.
# Les résultats sont exprimés en pourcentage d'inhibition de la stimulation d'incorporation de 3H-thymidine due à l'action du facteur de croissance.
Compound,"% de déplacement du ligand marqué ([1]; competitor 1E-5M, 10 µM)","% de déplacement du ligand marqué ([1]; competitor 1E-7M, 0.1 µM)",% inhibition de l'incorporation de 3H-thymidine induite par le PDGF [2]
"7-N,N-diethylamino-5-propyl-6-[(2'-(1-H-tétrazol-5-yl) biphényl-4-yl) méthyl]-1,2,4-triazolo [1,5-a] pyrimidine [Exemple 69]",69%,19%,100%
"CCCc1nc2ncnn2c(O)c1Cc1ccc(-c2ccccc2-c2nnn[nH]2)cc1 [Exemple 62, 7-hydroxy-5-propyl-6-[(2'-(1-H-tétrazol-5-yl)biphényl-4-yl)méthyl]-1,2,4-triazolo [1,5-a]pyrimidine]",65%,52%,
"CCCc1c(Cc2ccc(-c3ccccc3-c3nnn[nH]3)cc2)c(O)nc2ncnn12 [Exemple 63, 5-hydroxy-7-propyl-6-[(2'-(1-H-tétrazol-5-yl)biphényl-4-yl)méthyl]-1,2,4-triazolo [1,5-a] pyrimidine]",61%,52%,
"CCCc1nc2nncn2c(O)c1Cc1ccc(-c2ccccc2-c2nnn[nH]2)cc1 [Exemple 65, 5-hydroxy-7-propyl-6-[(2'-(1-H-tétrazol-5-yl)biphényl-4-yl)méthyl]-1,2,4 triazolo [4,3-a] pyrimidine]",63%,47%,
"CCCc1nc2nc(CC)nn2c(O)c1Cc1ccc(-c2ccccc2-c2nnn[nH]2)cc1 [Exemple 68, 2-éthyl-7-hydroxy-5-propyl-6-[(2'-(1-H-tétrazol-5-yl)biphényl-4-yl)méthyl]-1,2,4-triazolo [1,5-a] pyrimidine]",69%,59%,
"CCCc1c(Cc2ccc(-c3ccccc3-c3nnn[nH]3)cc2)c(O)nc2nc(N)nn12 [Exemple 75, 2-amino-5-hydroxy-7-propyl-6-[(2'-(1-H-tétrazol-5-yl)biphényl-4-yl)méthyl]-1,2,4-triazolo [1,5-a] pyrimidine]",61%,60%,
"CCCc1c(Cc2ccc(-c3ccccc3-c3nnn[nH]3)cc2)c(N(CC)CC)nc2ncnn12 [Exemple 76, 5-N,N-diéthylamino-7-propyl-6-[(2'-(1-H-tétrazol-5-yl)biphényl-4-yl)méthyl]-1,2,4-triazolo [1,5-a] pyrimidine]",63%,28%,
"CCCc1c(Cc2ccc(-c3ccccc3-c3nnn[nH]3)cc2)c(N)nc2ncnn12 [Exemple 77, 5-amino-7-propyl-6-[(2'-(1-H-tétrazol-5-yl)biphényl-4-yl)méthyl]-1,2,4-triazolo [1,5-a] pyrimidine]",63%,31%,
"CCCc1c(Cc2ccc(-c3sccc3-c3nnn[nH]3)cc2)c(O)nc2ncnn12 [Exemple 79, 5-hydroxy-7-propyl-6-[4-[3-(1-H-tétrazol-5-yl)-2-thiényl]benzyl]-1,2,4-triazolo [1,5-a] pyrimidine]",58%,26%,
"CCCCc1c(Cc2ccc(-c3ccccc3-c3nnn[nH]3)cc2)c(O)nc2nc(C)nn12 [Exemple 82, 7-butyl-5-hydroxy-2-méthyl-6-[(2'(1-H-tétrazol-5-yl)biphényl-4-yl)méthyl]-1,2,4-triazolo [1,5-a] pyrimidine]",58%,11%,
